Measured values: article PMC4254748 (Science (New York, N.Y.), 2014)

Experiments:
[1] = system: yeast heterozygous and homozygous deletion strains; experiment: HIP/HOP chemogenomic fitness profiling; format: cell-based; conditions: for Chemogenomic response signature induced: HIPHOP profile
[2] = system: immortalized human leukemia cells; experiment: Mitochondrial effects in immortalized human leukemia cells; format: cell-based; conditions: fig. S13
neo1Δ/NEO1 strain = experiment: Growth of the neo1Δ/NEO1 strain; format: cell-based, yeast; conditions: OD600 for 24 hours

Oc1ccc(Cl)cc1Cc1cc(Cl)cc(Cc2cc(Cl)ccc2O)c1O [trichlorophene]
Chemogenomic response signature induced [1]: induced mitochondrial stress
Generation of mitochondrial reactive oxygen species [2]: increased
Reserve oxygen capacity [2]: reduction

CO/C1=C\C(C)=C\[C@@H](C)[C@@H](O)[C@@H](C)C/C(C)=C/C=C/[C@H](OC)[C@@H]([C@@H](C)[C@@H](O)[C@H](C)[C@@]2(O)C[C@@H](O)[C@H](C)[C@@H](C(C)C)O2)OC1=O [bafilomycin A]
Effect on tamoxifen-induced NEO1 haploinsufficiency (neo1Δ/NEO1 strain): rescued

CCCCNC(=O)n1c(NC(=O)OC)nc2ccccc21 [benomyl]
Chemogenomic response signature induced [1]: induced a signature containing tubulin biogenesis and SWR1 complex genes

CC/C(=C(\c1ccccc1)c1ccc(OCCN(C)C)cc1)c1ccccc1 [Tamoxifen]
Induction of NEO1 haploinsufficiency (neo1Δ/NEO1 strain): Tamoxifen-induced NEO1 haploinsufficiency

OC(Cn1cncn1)(Cn1cncn1)c1ccc(F)cc1F [fluconazole]
HIP hit / strain with largest fitness defect ([1]; HIP profile): Erg11Δ/ERG11 strain represents a “hit”

COC(=O)Nc1nc2ccc(C(=O)c3cccs3)cc2[nH]1 [nocodazole]
Chemogenomic response signature induced [1]: induced a signature containing tubulin biogenesis and SWR1 complex genes
